How the values were obtained:
Format in all cases: functional
NCI-H3255 = test: Induction of apoptosis in human H3255 cells assessed as viable cells at 1000 nM after 48 hrs by Annexin V-FITC/PI staining based flow cytometry (reference value: 87.9%); details: NCI-H3255, 48 h, read-out: Activity
A-431 [1] = test: Induction of apoptosis in human A431 cells assessed as viable cells at 500 nM after 48 hrs by Annexin V-FITC/PI staining based flow cytometry (reference value: 90.3%); details: A-431, 48 h, read-out: Activity
A-431 [2] = test: Induction of apoptosis in human A431 cells assessed as late apoptotic cells at 1000 nM after 48 hrs by Annexin V-FITC/PI staining based flow cytometry (reference value: 2.11%)

COc1cccc(Nc2cc(Nc3cc(OC)ccc3OC)ncn2)c1
viability at 1 µM (NCI-H3255): 65.4% | viability at 0.5 µM (A-431 [1]): 70.7% | Activity (A-431 [2]): 13%

Source: ChEMBL document CHEMBL4265907, “Design, synthesis and pharmacological evaluation of N4,N6-disubstituted pyrimidine-4,6-diamine derivatives as potent EGFR inhibitors in non-small cell lung cancer” (Eur J Med Chem, 2018)
